In paper PMC6219988 (Biochemistry, 2018):

Test system: PTP1B
Assay: PTP1B-catalyzed hydrolysis of pNPP in the presence of inhibitors
Format: biochemical
Settings: IC50 at 20 mM pNPP

potency (IC50) relative to AA (ratio vs AA): 3 fold
potency (IC50) relative to DeAA (ratio vs DeAA): 7 fold
SMILES: CC(C)C1C=C2CCC3C(C)(C(=O)O)CCCC3(C)C2CC1 (single isomer, unassigned; diaa) [DiAA, dihydroabietic acid]
